Data on 23 compounds can be found in patent US9822107B2, “Thiazole-substituted aminoheteroaryls as spleen tyrosine kinase inhibitors” (MERCK SHARP & DOHME CORP., priority 2013, dated 2017).

The structures appear in SMILES notation.

System in the first data set: not given
Assay: not given
The settings on record: phase II clinical trial, allergic rhinitis; cited from earlier work.
As to `Oc1cccc(Nc2ncc(F)c(Nc3cccc(O)c3)n2)c1` [Example R112], the efficacy versus placebo entry was “lack of efficacy versus placebo”.

For a further data set, the system named is PGD2.
Assay: not given
The note with it: dosed intranasally, phase I/II study, allergic rhinitis; cited from earlier work.
`Oc1cccc(Nc2ncc(F)c(Nc3cccc(O)c3)n2)c1` [Example R112]: the clinical safety entry is “safe across a range of indicators” and the “decrease in PGD2” value is on record as “statistically significant decrease”.

In a further data set the target is T1, recombinant human GST-SYK (Homo sapiens, UniProt P43405).
T1 construct: purchased Carna Biosciences 08-176
Briefly: Homogeneous Time-Resolved Fluorescence (HTRF) assay for the recombinant human Syk enzyme. Type of data set: biochemical. The settings on record: recombinant human GST-SYK 5 pM, ATP 25 μM, read-out: rhSYK Activity (IC50). The procedure: Homogeneous Time-Resolved Fluorescence (HTRF) Assay for the Recombinant Human Syk Enzyme
A recombinant GST-hSYK fusion protein was used to measure potency of compounds to inhibit human Syk activity. […] Final volume of the reaction was 10 μL. Phosphorylation of the peptide was allowed to proceed for 45′ at room temperature. To quench the reaction and detect the phosphorylated product, 2 nM of a Europium-anti-phosphotyrosine antibody (Perkin Elmer #AD0161) and 70 nM SA-APC (Perkin-Elmer #CR130-100) were added together in 15 mM Tris pH 7.5, 40 mM EDTA, 0.01% tween 20. Final volume of the quenching solution was 10 μL.
The resulting HTRF signal was measured after 30 minutes on an EnVision (Perkin-Elmer) reader using a time-resolved fluorescence protocol.
(In general: TR-FRET usually uses a lanthanide donor and a delayed reading to cut background.)
A word on the IC50: it is the concentration that gives 50% inhibition. Turning to `CC(O)(c1ncc(-c2cc(Nc3nccc(C(F)(F)F)n3)cc3[nH]ccc23)s1)[C@H]1CC[C@H](C(=O)O)CC1` (single isomer, unassigned) [Example 1.1, (trans)-4-((R or 5)-1-hydroxy-1-(5-(6-((4-(trifluoromethyl)pyrimidin-2-yl)amino)-1H-indol-4-yl)thiazol-2-yl)ethyl)cyclohexanecarboxylic acid], the IC50 turned out to be 0.5 nM. On to `CC(O)(c1ncc(-c2cc(Nc3nccc(C(F)(F)F)n3)cc3cn[nH]c23)s1)[C@H]1CC[C@H](C(=O)O)CC1` (single isomer, unassigned) [Example 2.10, (trans)-4-((R or S)-1-hydroxy-1-[5-(5-{[4-(trifluoromethyl)pyrimidin-2-yl]amino}-1H-indazol-7-yl)-1,3-thiazol-2-yl]ethyl}cyclohexanecarboxylic acid], for which the IC50 was found to be 0.114 nM. On to `CC(O)(c1ncc(-c2ccnc3cc(Nc4nccc(C(F)(F)F)n4)ccc23)s1)[C@H]1CC[C@H](C(=O)O)CC1` (single isomer, unassigned) [Example 1.6], for which the IC50 was determined as 61.6 nM. Turning to `O=C(O)[C@H]1CC[C@](O)(c2ncc(-c3c[nH]c4ccc(Nc5nccc(C(F)(F)F)n5)cc34)s2)CC1` [Example 1.8], the IC50 was determined as 0.5 nM.

With `CCOC(=O)[C@H]1CC[C@](O)(c2ncc(-c3cc(Nc4nccc(OC(C)C)n4)cc4c3OC(C)(C)C(=O)N4)s2)CC1` [Example 2.6, ethyl cis-4-[5-(2,2-dimethyl-6-{[4-(1-methylethoxy)pyrimidin-2-yl]amino}-3-oxo-3,4-dihydro-2H-1,4-benzoxazin-8-yl)-1,3-thiazol-2-yl]-4-hydroxy-cyclohexanecarboxylate], the IC50 was 7.1 nM. Still for that read-out and setting: the figure for `CC1(C)C[C@@](O)(c2ncc(-c3cc(Nc4nccc(C(F)(F)F)n4)cc4[nH]ccc34)s2)CC[C@@H]1C(=O)O` (single isomer, unassigned) [Example 1.3, (1S,4R or 1R,4S)-4-hydroxy-2,2-dimethyl-4-[5-(6-{[4-(trifluoromethyl)pyrimidin-2-yl]amino}-1H-indol-4-yl)-1,3-thiazol-2-yl]cyclohexane-carboxylic acid] is 0.06 nM.

For the compound `Cn1ccc2c(-c3cnc([C@@]4(O)CC[C@H](C(=O)O)C(C)(C)C4)s3)cc(Nc3nccc(C(F)(F)F)n3)cc21` (single isomer, unassigned) [Example 1.4, (1S,4R or 1R,4S)-4-hydroxy-2,2-dimethyl-4-[5-(1-methyl-6-{[4-(trifluoromethyl)pyrimidin-2-yl]amino}-1H-indol-4-yl)-1,3-thiazol-2-yl]cyclohexane-carboxylic acid], the IC50 was found to be 0.477 nM.

On to `O=C(O)[C@H]1CC[C@](O)(c2ncc(-c3c[nH]c4ccc(Nc5nccc(C(F)F)n5)cc34)s2)CC1` [Example 1.12, cis 4-(5-(5-((4-(difluoromethyl)pyrimidin-2-yl)amino)-1H-indol-3-yl)thiazol-2-yl)-4-hydroxy-cyclohexanecarboxylic acid], for which the IC50 came to 0.5 nM. With `CC(O)(c1ncc(-c2c[nH]c3cc(Nc4nccc(C(F)(F)F)n4)ccc23)s1)[C@H]1CC[C@H](C(=O)O)CC1` (single isomer, unassigned) [Example 1.9, (trans)-4-((R or S)-1-hydroxy-1-(5-(6-((4-(trifluoromethyl)pyrimidin-2-yl)amino)-1H-indol-3-yl)thiazol-2-yl)ethyl) cyclohexanecarboxylic acid], the IC50 came to 39.9 nM. Take `CC1(C)C[C@@](O)(c2ncc(-c3cc(Nc4nccc(C(F)(F)F)n4)cc4cn[nH]c34)s2)CC[C@@H]1C(=O)O` (single isomer, unassigned) [Example 2.8]: the IC50 was 0.552 nM. Still for that read-out and setting: the figure for `CC(C)Oc1ccnc(Nc2cc3c(c(-c4cnc([C@]5(O)CC[C@@H](C(=O)O)CC5)s4)c2)OC(C)(C)C(=O)N3)n1` [Example 2.7, cis-4-[5-(2,2-dimethyl-6-{[4-(1-methylethoxy)pyrimidin-2-yl]amino}-3-oxo-3,4-dihydro-2H-1,4-benzoxazin-8-yl)-1,3-thiazol-2-yl]-4-hydroxy-cyclohexanecarboxylic acid] is 0.366 nM.

Consider `CC1(C)Oc2c(cc(Nc3nccc(C(F)(F)F)n3)cc2-c2cnc(C(C)(O)C(F)(F)F)s2)NC1=O` (stereo not shown) [Example 2.5, 2,2-dimethyl-8-[2-(2,2,2-trifluoro-1-hydroxy-1-methylethyl)-1,3-thiazol-5-yl]-6-{[4-(trifluoromethyl)pyrimidin-2-yl]amino}-2H-1,4-benzoxazin-3(4H)-one], for which the IC50 was 35.8 nM. As for `CC1(C)C[C@@](O)(c2ncc(-c3ccnc4cc(Nc5nccc(C(F)(F)F)n5)ccc34)s2)CC[C@@H]1C(=O)O` (single isomer, unassigned) [Example 1.5, (1S,4R or 1R,4S)-4-hydroxy-2,2-dimethyl-4-(5-(7-((4-(trifluoromethyl)pyrimidin-2-yl)amino)quinolin-4-yl)thiazol-2-yl)cyclohexanecarboxylic acid], the half-maximal inhibitory concentration (IC50) stood at 63.2 nM.

For `C[C@](O)(c1ncc(-c2cc(Nc3nccc(C(F)(F)F)n3)cc3[nH]ncc23)s1)C1CCC(C(=O)O)CC1` (single isomer, unassigned) [Example 2.11, (trans)-4-((R or S)-(1-hydroxy-1-(5-(6-((4-(trifluoromethyl)pyrimidin-2-yl)amino)-1H-indazol-4-yl)thiazol-2-yl)ethyl)cyclohexanecarboxylic acid], the IC50 was 0.5 nM. As for `O=C(O)[C@H]1CC[C@](O)(c2ncc(-c3n[nH]c4ccc(Nc5nccc(C(F)(F)F)n5)cc34)s2)CC1` [Example 1.11], the IC50 came out at 0.5 nM. For the compound `CC1(C)Oc2c(cc(Nc3nccc(C(F)(F)F)n3)cc2-c2cnc(C3(O)CCC3)s2)NC1=O` [Example 2.2, 8-[2-(1-hydroxycyclobutyl)-1,3-thiazol-5-yl]-2,2-dimethyl-6-{[4-(trifluoromethyl)pyrimidin-2-yl]amino}-2H-1,4-benzoxazin-3(4H)-one], the IC50 was found to be 13.2 nM. With `CC(O)(c1ncc(-c2cc(Nc3nccc(C(F)(F)F)n3)cc3[nH]cnc23)s1)[C@H]1CC[C@H](C(=O)O)CC1` (single isomer, unassigned) [Example 2.12, (trans)-4-((R or S)-1-hydroxy-1-(5-(6-((4-(trifluoromethyl)pyrimidin-2-yl)amino)-1H-benzo[d]imidazol-4-yl)thiazol-2-yl)ethyl)cyclohexanecarboxylic acid], the IC50 amounted to 0.5 nM.

As for `CC1(C)C[C@@](O)(c2ncc(-c3c[nH]c4cc(Nc5nccc(C(F)(F)F)n5)ccc34)s2)CC[C@@H]1C(=O)O` (single isomer, unassigned) [Example 1.7, (1S,4R or 1R,4S)-4-hydroxy-2,2-dimethyl-4-(5-(6-((4-(trifluoromethyl)pyrimidin-2-yl)amino)-1H-indol-3-yl)thiazol-2-yl)cyclohexanecarboxylic acid], the IC50 was 49 nM. Same read-out and setting: as for `CC1(C)Oc2c(cc(Nc3nccc(-c4c[nH]nn4)n3)cc2-c2cnc([C@]3(O)CC[C@@H](C(=O)O)CC3)s2)NC1=O` [Example 2.1, (cis)-4-(5-(6-((4-(1H-1,2,3-Triazol-4-yl)pyrimidin-2-yl)amino)-2,2-dimethyl-3-oxo-3,4-dihydro-2H-benzo[b][1,4]oxazin-8-yl)thiazol-2-yl)-4-hydroxycyclohexanecarboxylic acid], the figure is 0.3 nM; as for `OC1(c2ncc(-c3cc(Nc4nccc(C(F)(F)F)n4)cc4[nH]ccc34)s2)CCC1` [Example 1.2, 1-[5-(6-{[4-(trifluoromethyl)pyrimidin-2-yl]amino}-1H-indol-4-yl)-1,3-thiazol-2-yl]cyclobutanol], 10.4 nM. Same read-out and setting: the figure for `CC1(C)C[C@@H](C(C)(O)c2ncc(-c3cc(Nc4nccc(C(F)(F)F)n4)cc4cn[nH]c34)s2)CC[C@@H]1C(=O)O` (single isomer, unassigned) [Example 2.9, (trans)-4-((R or S)-1-hydroxy-1-[5-(5-{[4-(trifluoromethyl)pyrimidin-2-yl]amino}-1H-indazol-7-yl)-1,3-thiazol-2-yl]ethyl}-2,2-dimethylcyclohexanecarboxylic acid] is 0.866 nM; for `O=c1[nH]c2cc(Nc3nccc(C(F)(F)F)n3)cc(-c3cnc(C4(O)CCC4)s3)c2[nH]1` [Example 2.4, 4-[2-(1-hydroxycyclobutyl)-1,3-thiazol-5-yl]-6-{[4-(trifluoromethyl)pyrimidin-2-yl]amino}-1,3-dihydro-2H-benzimidazol-2-one] it is 10.1 nM.
